# Assay results: patent EP2604265A1, “P2x7 antagonists as frontline or adjunctive treatment against status epilepticus” (Royal College of Surgeons in Ireland (RCSI), priority 2011, dated 2013)
# Target: T1, P2X7R (Mus musculus, UniProt Q9Z1M0)
# T1 construct: endogenous in cells; host or cells: primary hippocampal neurons from E17 mouse embryos
# T1 sequence (Q9Z1M0 1-595): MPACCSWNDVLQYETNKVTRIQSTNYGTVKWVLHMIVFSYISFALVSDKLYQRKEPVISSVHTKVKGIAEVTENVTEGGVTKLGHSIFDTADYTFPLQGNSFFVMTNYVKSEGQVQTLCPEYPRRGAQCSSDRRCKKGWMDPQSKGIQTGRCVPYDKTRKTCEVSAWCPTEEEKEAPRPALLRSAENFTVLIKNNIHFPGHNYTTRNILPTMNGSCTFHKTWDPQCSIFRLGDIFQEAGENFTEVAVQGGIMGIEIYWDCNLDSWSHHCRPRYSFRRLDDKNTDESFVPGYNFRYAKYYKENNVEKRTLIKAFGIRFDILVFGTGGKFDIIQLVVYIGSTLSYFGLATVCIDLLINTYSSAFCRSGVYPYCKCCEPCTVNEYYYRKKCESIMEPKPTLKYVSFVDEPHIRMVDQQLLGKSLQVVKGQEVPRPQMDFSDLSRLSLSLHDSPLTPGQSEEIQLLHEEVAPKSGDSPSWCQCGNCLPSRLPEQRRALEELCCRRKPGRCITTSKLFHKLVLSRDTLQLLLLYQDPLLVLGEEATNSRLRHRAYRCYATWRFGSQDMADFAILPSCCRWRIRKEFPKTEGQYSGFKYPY
# Experiment: Fura-2 calcium microfluorimetry, BzATP-evoked calcium entry
# Type: cell-based
# Conditions: cultured hippocampal neurons; BzATP 100 µM; BBG 1 µM
# Description: Hippocampal neurons were prepared as described previously (Diaz-Hernandez et al., 2008). Briefly, hippocampi were obtained from E17 mouse embryos and, after dissection and washing three times in Ca^2+/Mg^2+-free HBSS, tissue was digested in the same solution with 0.25% trypsin for 15 min at 37°C. Hippocampi were then washed three times in Ca^2+/Mg^2+-free HBSS and dissociated with a firepolished Pasteur pipette. Cells were counted, resuspended in plating medium (MEM, 10% fetal bovine serum, 0.6% glucose) and plated at a density of 5,000 cells/cm^2 on poly-L-lysine coated coverslips (1 mg/ml). After plating, neurons were cultured for 24-72 h in neuronal culture medium (Neurobasal, B-27, glutamax-I). For biochemical experiments, hippocampal neurons were plated on polylysine-coated (1 mg/ml) 60-mm plates at a density of 200,000 cells/cm^2, and cultured for 72 h in neuronal culture medium. AraC was added at a final concentration of 5 µM after 2 days in culture.
# Calcium microfluorimetric analysis in single neurons was carried out according to (Diaz-Hernandez et al., 2001). […]
# Neurons were visualized using a Plan Fluor x40 S/0.5-1.3 oil lens. […] The background was subtracted at each wavelength and the 340 / 380 ratio was calculated. The data are represented as the normalized F340/F380 fluorescence ratio, which increases as [Ca^2+]i increases.
structure (smiles),measurement,value
"CCOc1ccc(Nc2ccc(C(=C3C=CC(=[N+](CC)Cc4cccc(S(=O)(=O)[O-])c4)C=C3C)c3ccc(N(CC)Cc4cccc(S(=O)(=O)O)c4)cc3C)cc2)cc1 [BBG, Brilliant Blue G]",P2X7R-gated (BzATP-induced) calcium entry,effective to block
